Measurements from the supplement of paper PMC11208160.

Experiment: recombinant UMI read abundance after kanamycin selection (control-corrected) (log10(CPM+1)); higher = more efficient recombination; extreme values may be limits of the assay; sequences stand for … in AGTGCAGAGAAAATCGGCCAGTTTTCTCTGCCTGCAGTCCGCATGCCGTGGGACCCCTTGGGTTCTAACCTGTTGCCTAGATTTATGCAGCGGACTGCCTTTCTCCCAAAGTGATAAACCGG…AGGTTGGTTTCACT; site = the 11-nt donor
Method in brief: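 In a pooled Escherichia coli screen for the IS621 bridge recombinase, donor and donor-binding-loop pairs were each placed with a 12-nt UMI on a plasmid bearing a promoterless kanamycin gene. This library was co-electroporated with a target plasmid encoding a fixed target and T7-inducible recombinase, and cells were plated either on IPTG (0.07 mM) plus kanamycin or without selection, in two replicates each. Recombinant UMIs were PCR-amplified across the donor–target junction and sequenced, and counts were converted to CPM, averaged over replicates, scaled by control-derived factors and reported as log10(CPM+1).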
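Also: IS621 bridge recombinase in Escherichia coli cells against a fixed T5 target plasmid.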

Sequence: GTTAGAACATGGACCGGTTTTCCCGGTAATCCGTATTTGTC (site GTTAGAACTGC)
- recombinant UMI read abundance (log10): 0

Sequence: GTTAGAACATGGACCGGTTTTCCCGGTAATCCGTATTTGTC (site GTTAGAACTGG)
- recombinant UMI read abundance (log10): 0

Sequence: GTTAGAACATGGACCGGTTTTCCCGGTAATCCGTATTTGTC (site GTTAGAACTGT)
- recombinant UMI read abundance (log10): 0.013

Sequence: GTTAGAGCATGGACCGGTTTTCCCGGTAATCCGTATTTGAC (site GTTAGAGCTGT)
- recombinant UMI read abundance (log10): 2.46

Sequence: GTTAGATCATGGACCGGTTTTCCCGGTAATCCGTATTTGGC (site GTTAGAACTGC)
- recombinant UMI read abundance (log10): 0

Sequence: GTTAGATCATGGACCGGTTTTCCCGGTAATCCGTATTTGGC (site GTTAGACCTGC)
- recombinant UMI read abundance (log10): 0

Sequence: GTTAGATCATGGACCGGTTTTCCCGGTAATCCGTATTTGGC (site GTTAGAGCTGC)
- recombinant UMI read abundance (log10): 0

Sequence: GTTAGATCATGGACCGGTTTTCCCGGTAATCCGTATTTGGC (site GTTAGATCTGC)
- recombinant UMI read abundance (log10): 1.92

Sequence: GTTATAACATGGACCGGTTTTCCCGGTAATCCGTATTTGGC (site GTTAAAACTGC)
- recombinant UMI read abundance (log10): 0

Sequence: GTTATAACATGGACCGGTTTTCCCGGTAATCCGTATTTGGC (site GTTACAACTGC)
- recombinant UMI read abundance (log10): 0

Sequence: GTTATAACATGGACCGGTTTTCCCGGTAATCCGTATTTGGC (site GTTAGAACTGC)
- recombinant UMI read abundance (log10): 0

Sequence: GTTATAACATGGACCGGTTTTCCCGGTAATCCGTATTTGGC (site GTTATAACTGC)
- recombinant UMI read abundance (log10): 1.28

Sequence: GTTATTGCATGGACCGGTTTTCCCGGTAATCCGTATTTGAT (site GTTATTGCTAT)
- recombinant UMI read abundance (log10): 1.79

Sequence: GTTCCAGCATGGACCGGTTTTCCCGGTAATCCGTATTTGCA (site GTTCAAGCTTG)
- recombinant UMI read abundance (log10): 0

Sequence: GTTCCAGCATGGACCGGTTTTCCCGGTAATCCGTATTTGCA (site GTTCCAGCTTG)
- recombinant UMI read abundance (log10): 1.64

Sequence: GTTCCAGCATGGACCGGTTTTCCCGGTAATCCGTATTTGCA (site GTTCGAGCTTG)
- recombinant UMI read abundance (log10): 0

Sequence: GTTCCAGCATGGACCGGTTTTCCCGGTAATCCGTATTTGCA (site GTTCTAGCTTG)
- recombinant UMI read abundance (log10): 0

Sequence: GTTCCAGCATGGACCGGTTTTCCCGGTAATCCGTATTTGCT (site GTTCCAGCTAG)
- recombinant UMI read abundance (log10): 1.06

Sequence: GTTCGAACATGGACCGGTTTTCCCGGTAATCCGTATTTGCA (site GTTCGAACTTG)
- recombinant UMI read abundance (log10): 0.418

Sequence: GTTCGAACATGGACCGGTTTTCCCGGTAATCCGTATTTGCA (site GTTCGACCTTG)
- recombinant UMI read abundance (log10): 0

Sequence: GTTCGAACATGGACCGGTTTTCCCGGTAATCCGTATTTGCA (site GTTCGAGCTTG)
- recombinant UMI read abundance (log10): 0.00306

Sequence: GTTCGAACATGGACCGGTTTTCCCGGTAATCCGTATTTGCA (site GTTCGATCTTG)
- recombinant UMI read abundance (log10): 0.448

Sequence: GTTCGACCATGGACCGGTTTTCCCGGTAATCCGTATTTGCA (site GTTCGAACTTG)
- recombinant UMI read abundance (log10): 0

Sequence: GTTCGACCATGGACCGGTTTTCCCGGTAATCCGTATTTGCA (site GTTCGACCTTG)
- recombinant UMI read abundance (log10): 0

Sequence: GTTCGACCATGGACCGGTTTTCCCGGTAATCCGTATTTGCA (site GTTCGAGCTTG)
- recombinant UMI read abundance (log10): 0

Sequence: GTTCGACCATGGACCGGTTTTCCCGGTAATCCGTATTTGCA (site GTTCGATCTTG)
- recombinant UMI read abundance (log10): 0

Sequence: GTTCGCGCATGGACCGGTTTTCCCGGTAATCCGTATTTGCA (site GTTCGAGCTTG)
- recombinant UMI read abundance (log10): 0.394

Sequence: GTTCGCGCATGGACCGGTTTTCCCGGTAATCCGTATTTGCA (site GTTCGCGCTTG)
- recombinant UMI read abundance (log10): 2.03

Sequence: GTTCGCGCATGGACCGGTTTTCCCGGTAATCCGTATTTGCA (site GTTCGGGCTTG)
- recombinant UMI read abundance (log10): 0

Sequence: GTTCGCGCATGGACCGGTTTTCCCGGTAATCCGTATTTGCA (site GTTCGTGCTTG)
- recombinant UMI read abundance (log10): 0.00559

Sequence: GTTCGGGCATGGACCGGTTTTCCCGGTAATCCGTATTTGCA (site GTTCGAGCTTG)
- recombinant UMI read abundance (log10): 1.27

Sequence: GTTCGGGCATGGACCGGTTTTCCCGGTAATCCGTATTTGCA (site GTTCGCGCTTG)
- recombinant UMI read abundance (log10): 0

Sequence: GTTCGGGCATGGACCGGTTTTCCCGGTAATCCGTATTTGCA (site GTTCGGGCTTG)
- recombinant UMI read abundance (log10): 2.23

Sequence: GTTCGGGCATGGACCGGTTTTCCCGGTAATCCGTATTTGCA (site GTTCGTGCTTG)
- recombinant UMI read abundance (log10): 0.33

Sequence: GTTCGTACATGGACCGGTTTTCCCGGTAATCCGTATTTGAC (site GTTCGTACTGT)
- recombinant UMI read abundance (log10): 1.54

Sequence: GTTCGTACATGGACCGGTTTTCCCGGTAATCCGTATTTGGG (site GTTCGTACTCC)
- recombinant UMI read abundance (log10): 0.0129

Sequence: GTTCTATCATGGACCGGTTTTCCCGGTAATCCGTATTTGGT (site GTTCTATCTAC)
- recombinant UMI read abundance (log10): 0

Sequence: GTTCTTCCATGGACCGGTTTTCCCGGTAATCCGTATTTGGT (site GTTATTCCTAC)
- recombinant UMI read abundance (log10): 0.00339

Sequence: GTTCTTCCATGGACCGGTTTTCCCGGTAATCCGTATTTGGT (site GTTCTTCCTAC)
- recombinant UMI read abundance (log10): 0.00538

Sequence: GTTCTTCCATGGACCGGTTTTCCCGGTAATCCGTATTTGGT (site GTTGTTCCTAC)
- recombinant UMI read abundance (log10): 0.0119

Sequence: GTTCTTCCATGGACCGGTTTTCCCGGTAATCCGTATTTGGT (site GTTTTTCCTAC)
- recombinant UMI read abundance (log10): 0

Sequence: GTTGAGACATGGACCGGTTTTCCCGGTAATCCGTATTTGGT (site ATTGAGACTAC)
- recombinant UMI read abundance (log10): 0.953

Sequence: GTTGAGACATGGACCGGTTTTCCCGGTAATCCGTATTTGGT (site CTTGAGACTAC)
- recombinant UMI read abundance (log10): 0.883

Sequence: GTTGAGACATGGACCGGTTTTCCCGGTAATCCGTATTTGGT (site GTTGAGACTAC)
- recombinant UMI read abundance (log10): 0.775

Sequence: GTTGAGACATGGACCGGTTTTCCCGGTAATCCGTATTTGGT (site TTTGAGACTAC)
- recombinant UMI read abundance (log10): 0.683

Sequence: GTTGATGCATGGACCGGTTTTCCCGGTAATCCGTATTTGAC (site GTTGATGCTGT)
- recombinant UMI read abundance (log10): 2.12

Sequence: GTTGCGTCATGGACCGGTTTTCCCGGTAATCCGTATTTGGC (site GTTGCGTCTGC)
- recombinant UMI read abundance (log10): 2.41

Sequence: GTTGCGTCATGGACCGGTTTTCCCGGTAATCCGTATTTGGT (site GTTGCGTCTAC)
- recombinant UMI read abundance (log10): 0.923

Sequence: GTTGTATCATGGACCGGTTTTCCCGGTAATCCGTATTTGAC (site CTAGTATCTGT)
- recombinant UMI read abundance (log10): 1.45

Sequence: GTTGTATCATGGACCGGTTTTCCCGGTAATCCGTATTTGAC (site GTTGTATCTGT)
- recombinant UMI read abundance (log10): 2.18

Sequence: GTTGTCCCATGGACCGGTTTTCCCGGTAATCCGTATTTGGT (site GTTGTACCTAC)
- recombinant UMI read abundance (log10): 0.00965

Sequence: GTTGTCCCATGGACCGGTTTTCCCGGTAATCCGTATTTGGT (site GTTGTCCCTAC)
- recombinant UMI read abundance (log10): 0.0143

Sequence: GTTGTCCCATGGACCGGTTTTCCCGGTAATCCGTATTTGGT (site GTTGTGCCTAC)
- recombinant UMI read abundance (log10): 0.0145

Sequence: GTTGTCCCATGGACCGGTTTTCCCGGTAATCCGTATTTGGT (site GTTGTTCCTAC)
- recombinant UMI read abundance (log10): 0

Sequence: GTTGTCGCATGGACCGGTTTTCCCGGTAATCCGTATTTGCG (site GTAGTCGCTCG)
- recombinant UMI read abundance (log10): 0.0153

Sequence: GTTGTCGCATGGACCGGTTTTCCCGGTAATCCGTATTTGCG (site GTCGTCGCTCG)
- recombinant UMI read abundance (log10): 0.00886

Sequence: GTTGTCGCATGGACCGGTTTTCCCGGTAATCCGTATTTGCG (site GTGGTCGCTCG)
- recombinant UMI read abundance (log10): 0.009

Sequence: GTTGTCGCATGGACCGGTTTTCCCGGTAATCCGTATTTGCG (site GTTGTCGCTCG)
- recombinant UMI read abundance (log10): 0.974

Sequence: GTTGTTACATGGACCGGTTTTCCCGGTAATCCGTATTTGGT (site GTTGTTACTAC)
- recombinant UMI read abundance (log10): 1.07

Sequence: GTTGTTACATGGACCGGTTTTCCCGGTAATCCGTATTTGGT (site GTTGTTCCTAC)
- recombinant UMI read abundance (log10): 0

Sequence: GTTGTTACATGGACCGGTTTTCCCGGTAATCCGTATTTGGT (site GTTGTTGCTAC)
- recombinant UMI read abundance (log10): 0.0188

Sequence: GTTGTTACATGGACCGGTTTTCCCGGTAATCCGTATTTGGT (site GTTGTTTCTAC)
- recombinant UMI read abundance (log10): 0

Sequence: GTTGTTCCATGGACCGGTTTTCCCGGTAATCCGTATTTGAT (site GTTGTTCCTAA)
- recombinant UMI read abundance (log10): 0.0147

Sequence: GTTGTTCCATGGACCGGTTTTCCCGGTAATCCGTATTTGAT (site GTTGTTCCTAC)
- recombinant UMI read abundance (log10): 0.00806

Sequence: GTTGTTCCATGGACCGGTTTTCCCGGTAATCCGTATTTGAT (site GTTGTTCCTAG)
- recombinant UMI read abundance (log10): 0

Sequence: GTTGTTCCATGGACCGGTTTTCCCGGTAATCCGTATTTGAT (site GTTGTTCCTAT)
- recombinant UMI read abundance (log10): 0.00518

Sequence: GTTGTTCCATGGACCGGTTTTCCCGGTAATCCGTATTTGCT (site GTTGTTCCTAA)
- recombinant UMI read abundance (log10): 0.0109

Sequence: GTTGTTCCATGGACCGGTTTTCCCGGTAATCCGTATTTGCT (site GTTGTTCCTAC)
- recombinant UMI read abundance (log10): 0.0126

Sequence: GTTGTTCCATGGACCGGTTTTCCCGGTAATCCGTATTTGCT (site GTTGTTCCTAG)
- recombinant UMI read abundance (log10): 0

Sequence: GTTGTTCCATGGACCGGTTTTCCCGGTAATCCGTATTTGCT (site GTTGTTCCTAT)
- recombinant UMI read abundance (log10): 0.00476

Sequence: GTTGTTCCATGGACCGGTTTTCCCGGTAATCCGTATTTGGC (site GTTGTTCCTAC)
- recombinant UMI read abundance (log10): 0.00298

Sequence: GTTGTTCCATGGACCGGTTTTCCCGGTAATCCGTATTTGGC (site GTTGTTCCTCC)
- recombinant UMI read abundance (log10): 0.0108

Sequence: GTTGTTCCATGGACCGGTTTTCCCGGTAATCCGTATTTGGC (site GTTGTTCCTGC)
- recombinant UMI read abundance (log10): 0

Sequence: GTTGTTCCATGGACCGGTTTTCCCGGTAATCCGTATTTGGC (site GTTGTTCCTTC)
- recombinant UMI read abundance (log10): 0.0051

Sequence: GTTGTTCCATGGACCGGTTTTCCCGGTAATCCGTATTTGGG (site GTTGTTCCTAC)
- recombinant UMI read abundance (log10): 0.0139
